The source of these data is ChEMBL document CHEMBL1201862, “PubChem BioAssay data set” (2004).

Test systems include DLD-1; DMS-114; DMS-273; KM-20L2; M19-MEL; RXF 631; SNB-78; XF498; HOP-18.
Holding throughout (test): inhibition of tumour cell growth, NCI panel, 48 h

The structures appear in SMILES notation.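 Step 1: Grow cells in 96-well plates. Step 2: Expose to compound for 48 hours at 5 concentrations. Step 3: Interpolate endpoints linearly; if unreached, use highest concentration. The concentration for 50% growth inhibition is given as GI50.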 The source made the active and inactive calls. Rule as the data show it: active = GI50 up to about 1.1 µM and inactive = higher. Some results are limits rather than exact numbers.

On to `COc1ccc(CCc2cc(OC)c(O)c(OC)c2)cc1`, for which the GI50 in the assay with DLD-1 was 60.1 µM (inactive); with DMS-114, 29 µM (inactive); in the assay on DMS-273, 46.5 µM (inactive); in the assay on KM-20L2 it was > 100 µM (inactive); in the assay with M19-MEL, 57.1 µM (inactive); in the assay with RXF 631 it was 88.1 µM (inactive). In addition, the GI50 in the assay with SNB-78 is 30.9 µM (inactive); with XF498, 79.4 µM (inactive).

`NC(=O)c1ccc([N+](=O)[O-])cc1`: the GI50 in the assay on DLD-1, with DMS-114, in the assay with DMS-273, with KM-20L2, with M19-MEL and with RXF 631 was > 100 µM (inactive) throughout. The GI50 in the assay on SNB-78 and in the assay on XF498 was > 100 µM (inactive) each time.

Take `N=C1C=CC(=C(c2ccc(N)cc2)c2ccc(N)cc2)C=C1`: the GI50 in the assay with DLD-1 was 5.12 µM (inactive); with DMS-114, 2.18 µM (inactive); in the assay on KM-20L2, 4.3 µM (inactive); in the assay with M19-MEL, 4.13 µM (inactive); in the assay with SNB-78, 4.14 µM (inactive); in the assay on XF498, 2.38 µM (inactive).

As for `CCCCC1CC(c2ccc(Cl)cc2)=NO1` (stereo not given), the GI50 with DLD-1, in the assay with DMS-114, in the assay on DMS-273, in the assay on HOP-18, with M19-MEL and in the assay on SNB-78 was > 100 µM (inactive) each time.

Take `CCC[C@H]1O[C@@H]2CC(=O)O[C@@H]2C2=C1C(=O)C=CC2=O`: the GI50 is 17.7 µM (inactive) with DLD-1; 13.6 µM (inactive) in the assay with DMS-273; 18 µM (inactive) with HOP-18; 21.4 µM (inactive) in the assay with KM-20L2; 20.3 µM (inactive) with M19-MEL; 23.3 µM (inactive) in the assay with SNB-78.

`Cn1nc(-c2ccccc2)c(C(=O)/C=C/c2ccc(F)cc2)c(N2CCCC2)c1=O`: the GI50 in the assay with DLD-1 is 11.2 µM (inactive); with DMS-114, 11.5 µM (inactive); with DMS-273, 14.8 µM (inactive); in the assay with HOP-18 it was 14.6 µM (inactive); in the assay on KM-20L2, 13.1 µM (inactive); with M19-MEL it was 15.1 µM (inactive). Besides, in the assay on XF498, the GI50 was 20.8 µM (inactive).

As to `COCCN1C2=CCCCC2=Nc2c(N)nc(N)nc21`, the GI50 in the assay on DLD-1 is > 100 µM (inactive); in the assay on DMS-114, > 100 µM (inactive); in the assay on DMS-273, > 100 µM (inactive); with HOP-18 it was > 100 µM (inactive); in the assay on KM-20L2 it was > 100 µM (inactive); in the assay with M19-MEL it was 24.3 µM (inactive). Moreover, the GI50 with RXF 631, with SNB-78 and with XF498 was > 100 µM (inactive) in each case.

For the compound `COC(=O)C1Cc2c([nH]c3ccccc23)C(c2ccccc2O)N1Cc1ccccc1` (stereo not given), the GI50 is 74 µM (inactive) in the assay with DLD-1; 19.8 µM (inactive) with DMS-114; 23.8 µM (inactive) in the assay on DMS-273; 31.6 µM (inactive) with HOP-18; > 46.5 µM (inactive) in the assay on KM-20L2; 40.6 µM (inactive) with M19-MEL. Moreover, the GI50 in the assay with RXF 631 is 21.2 µM (inactive); in the assay with SNB-78, 34 µM (inactive).

As to `CC(=O)C1Cn2c(nc3ccccc32)C[Se]1` (stereo not given), the GI50 in the assay with DLD-1 is 3.63 µM (inactive); in the assay on DMS-114, 2.12 µM (inactive); with HOP-18, 2.61 µM (inactive); in the assay with KM-20L2, 12.9 µM (inactive); in the assay with M19-MEL it was 1.99 µM (inactive); in the assay with RXF 631 it was 2.14 µM (inactive). Besides, the GI50 in the assay on SNB-78 is 4.47 µM (inactive).

As to `COc1cccc2c1C(=O)c1c(O)c3c(c(O)c1C2=O)C[C@@](O)(C(C)=O)C[C@@H]3OC1CC(O)C(O)C(C)O1` (stereo not given in full), the GI50 was 1.46 µM (inactive) in the assay with DLD-1; 0.253 µM (active) in the assay with DMS-273; 1.39 µM (inactive) in the assay on HOP-18; 2.69 µM (inactive) in the assay on KM-20L2; 1.6 µM (inactive) in the assay with M19-MEL; 4.42 µM (inactive) in the assay with SNB-78.

Regarding `COc1ccc(OC)c(NC(=O)C(=O)NNC(=O)c2sc(NNC(C)=O)nc2C)c1`, the GI50 is 33.4 µM (inactive) with KM-20L2, 60.1 µM (inactive) with M19-MEL, 27 µM (inactive) with SNB-78 and 25.6 µM (inactive) in the assay on XF498.

As to `CC#CC1C2CCCC1(CSc1ccccc1)NC(=O)O2` (stereo not given), the GI50 in the assay on DLD-1, with DMS-114, in the assay with DMS-273, in the assay with HOP-18, in the assay on KM-20L2 and in the assay with M19-MEL was > 100 µM (inactive) each time. The GI50 in the assay with RXF 631, with SNB-78 and in the assay with XF498 was > 100 µM (inactive) each time.

Regarding `C=C1C(=O)OC2/C=C(\C)C3OC3/C=C(/C(=O)OC)C(O)C(OC(=O)C3(C)OC3C)C12` (stereo not given), the GI50 was 1.03 µM (active) in the assay with DLD-1, 0.435 µM (active) in the assay with DMS-114, 1.59 µM (inactive) in the assay on DMS-273 and 1.79 µM (inactive) in the assay on SNB-78.

As for `O=C(c1ccc(Cl)cc1Cl)N(/N=C/C=C/c1ccccc1)c1nnc(-c2ccccc2)c(-c2ccccc2)n1`, the GI50 with DLD-1, with DMS-114, in the assay with DMS-273, in the assay on KM-20L2, in the assay on M19-MEL and with RXF 631 was > 100 µM (inactive) in each case. For the same compound, the GI50 in the assay with SNB-78 and in the assay with XF498 was > 100 µM (inactive) in each case.

With `O=c1c2ccccc2nc(-c2ccccc2)n1NC1OC(CO)C(O)C(O)C1O` (stereo not given), the GI50 is > 100 µM (inactive) in the assay with DLD-1; > 100 µM (inactive) with DMS-114; > 100 µM (inactive) in the assay on DMS-273; 1.46 µM (inactive) in the assay on HOP-18; > 100 µM (inactive) in the assay with KM-20L2; > 100 µM (inactive) in the assay with M19-MEL. Moreover, the GI50 with RXF 631, in the assay with SNB-78 and in the assay with XF498 was > 100 µM (inactive) throughout.

With `CC(C)CC(N)C(=O)OCN1C(=O)C2C3C=CC(C2C1=O)C1C2C(=O)N(COC(=O)C(N)CC(C)C)C(=O)C2C31` (stereo not given), the GI50 was > 86.7 µM (inactive) in the assay on DLD-1; > 62.1 µM (inactive) with DMS-114; 97.3 µM (inactive) with DMS-273; > 100 µM (inactive) with HOP-18; > 100 µM (inactive) in the assay on KM-20L2; > 100 µM (inactive) with RXF 631. In the assay with SNB-78, the GI50 is > 100 µM (inactive).

For `O=C1[C@@H]2C(c3c(Cl)cccc3Cl)=NO[C@@H]2C(=O)N1c1ccc(Cc2ccc(N3C(=O)[C@H]4C(c5c(Cl)cccc5Cl)=NO[C@H]4C3=O)cc2)cc1`, the GI50 in the assay on DLD-1, in the assay on DMS-114, with DMS-273, with HOP-18, in the assay with KM-20L2 and in the assay on M19-MEL was > 100 µM (inactive) throughout. The GI50 in the assay with SNB-78 and in the assay with XF498 was > 100 µM (inactive) in each case.

For `CSc1ccc(/C=C2/C[N+](C)(C)C/C(=C/c3ccc(SC)cc3)C2=O)cc1`, the GI50 in the assay on DLD-1 is 7.78 µM (inactive); in the assay on DMS-114, 6.44 µM (inactive); in the assay with HOP-18, 31.8 µM (inactive); in the assay on M19-MEL it was 6.25 µM (inactive); in the assay on RXF 631, 35.2 µM (inactive); in the assay on SNB-78 it was 62.2 µM (inactive). The GI50 in the assay with XF498 is 15.7 µM (inactive).

With `COc1ccc(OC)c2c1C(=O)C1CC1(Br)C2=O` (stereo not given), the GI50 with DLD-1, in the assay with DMS-114, with DMS-273, in the assay on KM-20L2, in the assay with M19-MEL and in the assay with XF498 was > 100 µM (inactive) in each case.

Take `CCOC(=O)c1cc2c(OCc3ccccc3)c(OC)cc3c2c(n1)N(c1ccc(OC)cc1)C(C)C3` (stereo not given): the GI50 was > 50 µM (inactive) in the assay on DLD-1; 38.3 µM (inactive) with DMS-114; > 50 µM (inactive) with DMS-273; > 50 µM (inactive) in the assay on HOP-18; 2.47 µM (inactive) with KM-20L2; > 50 µM (inactive) in the assay on M19-MEL. Further, the GI50 with XF498 was > 50 µM (inactive).

As to `O=c1c2ccccc2nc(-c2ccccc2)n1NC(=S)Nc1ccc(Cl)cc1[N+](=O)[O-]`, the GI50 with DLD-1 is 87.9 µM (inactive); in the assay with DMS-114, 31.2 µM (inactive); in the assay with DMS-273 it was 49.8 µM (inactive); in the assay with HOP-18, 27.4 µM (inactive); with M19-MEL, 54.1 µM (inactive).

Turning to `COc1cc2c(c(OC)c1OC)-c1cccc(=O)cc1C(NC(C)=O)CC2` (stereo not given), the GI50 with DMS-114 was 0.0685 µM (active); with DMS-273, 0.0509 µM (active); with HOP-18 it was > 100 µM (inactive); in the assay with KM-20L2 it was 0.12 µM (active); with M19-MEL, 0.605 µM (active); in the assay with SNB-78, 0.0859 µM (active). Besides, in the assay on XF498, the GI50 is 0.117 µM (active).

For `O=C(O)c1cc(=O)c2cc(C(=O)c3cccs3)c(Cl)c(Cl)c2o1`, the GI50 with DLD-1, with KM-20L2 and in the assay with SNB-78 was > 100 µM (inactive) throughout.

With `COc1ccc(COCC(Cn2ccnc2)OCc2ccc(C(=O)O)cc2)cc1` (stereo not given), the GI50 in the assay on DLD-1, in the assay with DMS-114, in the assay with KM-20L2, in the assay with M19-MEL, with RXF 631 and in the assay on SNB-78 was > 100 µM (inactive) each time. In addition, the GI50 with XF498 was > 100 µM (inactive).

On to `Cc1cc(O)c2c(c1)C[C@@H](O)C1=C2C(=O)c2c(O)ccc(OC3CC(O)C(OC4CC(OC5CCC(OC6CC(O)C(OC7CC(OC8CCC(O)C(C)O8)C(O)C(C)O7)C(C)O6)C(C)O5)C(O)C(C)O4)C(C)O3)c2C1=O` (stereo not given in full), for which the GI50 in the assay on DLD-1 is 0.0173 µM (active); in the assay on DMS-114, 0.0144 µM (active); in the assay on DMS-273 it was 0.0209 µM (active); in the assay with HOP-18, 0.0403 µM (active); with KM-20L2, 0.0461 µM (active); in the assay on M19-MEL, 0.00411 µM (active). For the same compound, the values for the GI50 in the assay with SNB-78 and with XF498 were 0.0245 µM (active) and 0.0247 µM (active), respectively.
